The values below are quoted from earlier work in patent US4337247A, “Tetrapeptidesemicarbazide derivatives and their production and use” (Takeda Chemical Industries, Ltd., priority 1979, dated 1982).

The conditions of this data set: for morphinomimetic activity: direct intracerebral administration; for analgesic effect: intravenous route.

Turning to H-Tyr-Gly-Gly-Phe-Leu-OH, the morphinomimetic activity result is “show morphinomimetic activity” and the analgesic effect entry is on record as “do not produce analgesic effects”.

Consider “H-Tyr-Gly-Gly-Phe-Met-OH (H-YGGFM-OH) [enkephalin, pentapeptide isolated from the pig brain]”, for which the morphinomimetic activity entry was “show morphinomimetic activity” and the analgesic effect entry is “do not produce analgesic effects”.

“β-endorphine (YGGFMTSEKSQTPLVTLFKNAIIKNAYKKGE; Beta-endorphin; UniProt P01189 237-267, looked up) [polypeptide consisting of 31 amino acids, considered to be derived from the carboxy-terminal of β-lipotrophine]”: the analgesic effect result is given as “displays an overt analgesic action”.
